# In patent US20220411422A1, “ERBB RECEPTOR INHIBITORS” (Dizal (Jiangsu) Pharmaceutical Co., Ltd., priority 2018, published 2022):
# Assay: Blood brain barrier penetration assay in rats (short oral absorption model with blood, plasma and brain binding)
# Format: in vivo
# Conditions: male, Han Wistar, CSF, Table 5, rat, read-out: Kp,uu,CSF
# Description: In vitro blood, plasma and brain binding assay was carried out with equilibrium dialysis device. […] At the end of incubation, a 50 μL aliquot from the receiver side and a 5 μL from the donor chamber were taken. The 5 μL sample was further diluted with 45 μL of blank blood, plasma or brain homogenate. Paired samples were matrix-matched with either buffer or blank matrix, and mixed for 2 min, and then precipitated with 150 μL cold acetonitrile with 100 ng/mL tolbutamide as internal standard. After centrifuging at 4000 rpm for 20 min, supernatant was diluted with 0.1% formic acid aqueous solution and analyzed for LC/MS/MS (API 4000, Applied Biosystems, Foster City). […] D is dilution factor. […] A Short oral absorption (SOA) model is an in-vivo screening model to identify brain penetration of a compound. Six male Han Wistar rats purchased from Beijing Vital River were orally dosed with the compound. […] Brain tissue was harvested and homogenized in 3× volume of 100 mM phosphate buffered saline (pH7.4). All samples were stored at ˜−70° C. prior to LC/MS/MS analysis. Standards were prepared by spiking blank plasma, blood, brain homogenate and artificial CSF. […] After 2 min vortex and 5 min centrifugation at 14,000 rpm, supernatant was analyzed by LC/MS/MS (API 4000, Applied Biosystems, Foster City). Two sets of standard curves were run at the beginning and end of each batch from blood sample analysis. For brain and CSF samples, one standard curve was analyzed along with test samples. Total brain levels, expressed as brain/blood ratio (Kp,brain) were measured by AUC(brain)/AUC(blood or plasma) in rodents after oral administration. Similarly, CSF levels represented by a ratio of CSF/blood exposure (Kp,CSF) were determined by AUC(CSF)/AUC(blood or plasma). Free fraction of test compound in biological matrix was determined by in vitro blood and brain binding assay. Kp,uu brain and Kp,uu CSF was calculated by the following equation: Kp,uu brain=AUC(brain)/AUC(blood or plasma)×(fubrain/fublood/plasma) and […] Moreover, the ability of Compounds 6 and 16 to cross BBB was assessed in both rat and monkey by measuring unbound brain-to-plasma partition ratio (Kpuu,brain) and unbound CSF-to-plasma partition ratio (Kpuu,CSF) with the method mentioned above.
compound,measurement,value
"COc1cc(O[C@H]2CCN(C)CC2(F)F)c2c(Nc3ccc(Oc4ccn5ncnc5c4)c(C)c3)ncnc2c1 (single isomer, unassigned) [Compound 6]",Kp uu,0.87
